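Five compound concentrations were applied to cells in 96-well plates for 48 hours; endpoints were derived by simple linear interpolation of the resulting dose-response curve. GI50 = concentration required for 50% inhibition of growth.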 Activity calls are given as the source filed them. Cut-off read from the data, not from the text of the source: active = GI50 up to about 1.1 µM and inactive = higher.
Tests used:
Experiment in all cases: growth of human tumour cells (NCI), 48 h
[1] = system: OVCAR-3
[2] = system: SK-MEL-5
[3] = system: NCI-H460
[4] = system: Hs-578T
[5] = system: SNB-19
[6] = system: NCI-H23
[7] = system: MDA-N
[8] = system: SF-539
[9] = system: TK-10
[10] = system: Malme-3M
[11] = system: MDA-MB-435
[12] = system: UACC-257
[13] = system: COLO 205
[14] = system: A498
[15] = system: HOP-62
[16] = system: M14
[17] = system: SK-OV-3
[18] = system: IGROV-1
[19] = system: T47D
[20] = system: HOP-92
[21] = system: HCT-116
[22] = system: OVCAR-5
[23] = system: CCRF-CEM
[24] = system: K562
[25] = system: NCI-H522
[26] = system: HT-29
[27] = system: MCF7
[28] = system: CAKI-1
[29] = system: ACHN
[30] = system: RXF 393
[31] = system: HL-60
[32] = system: HCT-15
[33] = system: SNB-75
[34] = system: LOX IMVI
[35] = system: SR
[36] = system: UO-31
[37] = system: OVCAR-4
[38] = system: DU-145
[39] = system: NCI-H226
[40] = system: BT-549
[41] = system: RPMI-8226
[42] = system: SW-620
[43] = system: HCC 2998
[44] = system: UACC-62
[45] = system: EKVX
[46] = system: KM12
[47] = system: SF-268
[48] = system: 786-0
[49] = system: MOLT-4
[50] = system: A549
[51] = system: SF-295
[52] = system: PC-3
[53] = system: SK-MEL-28
[54] = system: OVCAR-8
[55] = system: U-251
[56] = system: SN12C
[57] = system: NCI/ADR-RES
[58] = system: SK-MEL-2
[59] = system: MDA-MB-231
[60] = system: DMS-114
[61] = system: DMS-273
[62] = system: SNB-78
[63] = system: M19-MEL
[64] = system: DLD-1

Compound: O=C1c2ccccc2-c2ccc(N(Cc3ccc(Br)cc3)Cc3ccc(Br)cc3)cc21
- GI50 [1]: > 100 µM (inactive)
- GI50 [2]: > 100 µM (inactive)
- GI50 [3]: 9.82 µM (inactive)
- GI50 [4]: > 100 µM (inactive)
- GI50 [5]: > 100 µM (inactive)
- GI50 [6]: > 100 µM (inactive)
- GI50 [7]: > 100 µM (inactive)
- GI50 [8]: > 100 µM (inactive)
- GI50 [9]: > 100 µM (inactive)
- GI50 [10]: > 100 µM (inactive)
- GI50 [11]: > 100 µM (inactive)
- GI50 [12]: > 100 µM (inactive)
- GI50 [13]: > 100 µM (inactive)
- GI50 [14]: > 100 µM (inactive)
- GI50 [15]: > 100 µM (inactive)
- GI50 [16]: > 100 µM (inactive)
- GI50 [17]: > 100 µM (inactive)
- GI50 [18]: > 100 µM (inactive)
- GI50 [19]: > 100 µM (inactive)
- GI50 [20]: > 100 µM (inactive)
- GI50 [21]: > 100 µM (inactive)
- GI50 [22]: > 100 µM (inactive)
- GI50 [23]: 11.1 µM (inactive)
- GI50 [24]: > 100 µM (inactive)
- GI50 [25]: > 100 µM (inactive)
- GI50 [26]: > 100 µM (inactive)
- GI50 [27]: > 100 µM (inactive)
- GI50 [28]: > 100 µM (inactive)
- GI50 [29]: > 100 µM (inactive)
- GI50 [30]: > 100 µM (inactive)
- GI50 [31]: 20.7 µM (inactive)
- GI50 [32]: > 100 µM
- GI50 [33]: > 100 µM (inactive)
- GI50 [34]: > 100 µM (inactive)
- GI50 [35]: 2.44 µM (inactive)
- GI50 [36]: > 100 µM (inactive)
- GI50 [37]: > 100 µM (inactive)
- GI50 [38]: > 100 µM (inactive)
- GI50 [39]: > 100 µM (inactive)
- GI50 [40]: > 100 µM (inactive)
- GI50 [41]: > 100 µM (inactive)
- GI50 [42]: > 100 µM (inactive)
- GI50 [43]: > 100 µM (inactive)
- GI50 [44]: > 100 µM (inactive)
- GI50 [45]: > 100 µM (inactive)
- GI50 [46]: > 100 µM (inactive)
- GI50 [47]: > 100 µM (inactive)
- GI50 [48]: > 100 µM (inactive)
- GI50 [49]: 36.2 µM (inactive)
- GI50 [50]: 22.3 µM (inactive)
- GI50 [51]: > 100 µM (inactive)
- GI50 [52]: > 100 µM (inactive)
- GI50 [53]: > 100 µM (inactive)
- GI50 [54]: > 100 µM (inactive)
- GI50 [55]: > 100 µM (inactive)
- GI50 [56]: > 100 µM (inactive)
- GI50 [57]: > 100 µM (inactive)
- GI50 [58]: > 100 µM (inactive)
- GI50 [59]: > 100 µM (inactive)

Compound: Nc1ccc2nc(Nc3ccc(Cl)c(Cl)c3)cnc2c1
- GI50 [1]: 16.9 µM (inactive)
- GI50 [2]: 37.2 µM (inactive)
- GI50 [3]: 17.6 µM (inactive)
- GI50 [5]: 17.3 µM (inactive)
- GI50 [60]: 10 µM (inactive)
- GI50 [6]: 22.4 µM (inactive)
- GI50 [61]: 18.2 µM (inactive)
- GI50 [8]: 29.5 µM (inactive)
- GI50 [9]: 19.2 µM (inactive)
- GI50 [10]: 18.5 µM (inactive)
- GI50 [12]: 25.8 µM (inactive)
- GI50 [13]: 19.4 µM (inactive)
- GI50 [15]: 18.9 µM (inactive)
- GI50 [16]: 14.3 µM (inactive)
- GI50 [21]: 18.1 µM (inactive)
- GI50 [22]: 19.1 µM (inactive)
- GI50 [23]: 1.11 µM (active)
- GI50 [24]: 19 µM (inactive)
- GI50 [25]: 6.37 µM (inactive)
- GI50 [26]: 16.2 µM (inactive)
- GI50 [62]: 24.6 µM (inactive)
- GI50 [28]: 28.8 µM (inactive)
- GI50 [29]: 22.2 µM (inactive)
- GI50 [31]: 8.47 µM (inactive)
- GI50 [32]: 16.6 µM
- GI50 [33]: 82.6 µM (inactive)
- GI50 [34]: 14.7 µM (inactive)
- GI50 [35]: 2.44 µM (inactive)
- GI50 [36]: 11.9 µM (inactive)
- GI50 [37]: 17 µM (inactive)
- GI50 [39]: 15.5 µM (inactive)
- GI50 [41]: 12.2 µM (inactive)
- GI50 [42]: 17.9 µM (inactive)
- GI50 [43]: 16.1 µM (inactive)
- GI50 [45]: 26.8 µM (inactive)
- GI50 [46]: 15.6 µM (inactive)
- GI50 [47]: 13.9 µM (inactive)
- GI50 [48]: 15.5 µM (inactive)
- GI50 [49]: 1.6 µM (inactive)
- GI50 [50]: 15.7 µM (inactive)
- GI50 [63]: 18.2 µM (inactive)
- GI50 [51]: > 10 µM (inactive)
- GI50 [53]: 17.6 µM (inactive)
- GI50 [54]: 26.2 µM (inactive)
- GI50 [55]: 19.4 µM (inactive)
- GI50 [64]: 34.7 µM (inactive)
- GI50 [56]: 14.9 µM (inactive)
- GI50 [58]: 20 µM (inactive)

Compound: O=C(C1OC1c1ccc(O)cc1)C12CC3CC(CC(C3)C1)C2 (stereo unspecified)
- GI50 [1]: 45.1 µM (inactive)
- GI50 [2]: 61.7 µM (inactive)
- GI50 [3]: > 80.9 µM (inactive)
- GI50 [4]: > 100 µM (inactive)
- GI50 [5]: > 100 µM (inactive)
- GI50 [6]: 97.9 µM (inactive)
- GI50 [7]: > 57.1 µM (inactive)
- GI50 [8]: 45 µM (inactive)
- GI50 [9]: 58.3 µM (inactive)
- GI50 [10]: 45.1 µM (inactive)
- GI50 [11]: > 40.7 µM (inactive)
- GI50 [12]: 57 µM (inactive)
- GI50 [13]: 29.5 µM (inactive)
- GI50 [14]: > 69.8 µM (inactive)
- GI50 [15]: > 100 µM (inactive)
- GI50 [16]: > 64.3 µM (inactive)
- GI50 [17]: > 100 µM (inactive)
- GI50 [18]: > 86.1 µM (inactive)
- GI50 [19]: 22.9 µM (inactive)
- GI50 [20]: 32.3 µM (inactive)
- GI50 [21]: 41.5 µM (inactive)
- GI50 [22]: > 100 µM (inactive)
- GI50 [23]: 5.92 µM (inactive)
- GI50 [24]: 23.7 µM (inactive)
- GI50 [25]: 7.29 µM (inactive)
- GI50 [26]: > 100 µM (inactive)
- GI50 [27]: > 55.3 µM (inactive)
- GI50 [28]: 40.8 µM (inactive)
- GI50 [29]: 42 µM (inactive)
- GI50 [30]: > 78.3 µM (inactive)
- GI50 [31]: 10.9 µM (inactive)
- GI50 [32]: 53.2 µM
- GI50 [33]: > 100 µM (inactive)
- GI50 [34]: > 40.2 µM (inactive)
- GI50 [35]: 30.1 µM (inactive)
- GI50 [36]: 32.1 µM (inactive)
- GI50 [37]: 51.3 µM (inactive)
- GI50 [38]: > 100 µM (inactive)
- GI50 [39]: > 100 µM (inactive)
- GI50 [40]: 31.2 µM (inactive)
- GI50 [41]: 27 µM (inactive)
- GI50 [42]: 27.7 µM (inactive)
- GI50 [43]: > 100 µM (inactive)
- GI50 [44]: 40.1 µM (inactive)
- GI50 [45]: > 58.1 µM (inactive)
- GI50 [46]: 98.9 µM (inactive)
- GI50 [47]: > 87.1 µM (inactive)
- GI50 [48]: 31.6 µM (inactive)
- GI50 [49]: 17.8 µM (inactive)
- GI50 [50]: 95.3 µM (inactive)
- GI50 [51]: > 88.9 µM (inactive)
- GI50 [52]: 85.5 µM (inactive)
- GI50 [53]: > 100 µM (inactive)
- GI50 [54]: 50 µM (inactive)
- GI50 [55]: > 76 µM (inactive)
- GI50 [56]: 47.1 µM (inactive)
- GI50 [57]: 52.1 µM (inactive)
- GI50 [58]: > 100 µM (inactive)
- GI50 [59]: > 100 µM (inactive)

From ChEMBL document CHEMBL1201862, “PubChem BioAssay data set” (2004)
